Test system: 624824-186-R-J2-PDC multicell spheroids, viability
Test: Anticancer human tumor 624824-186-R-J2-PDC patient-derived colon adenocarcinoma cell line growth inhibition [PI3K]
Conditions: for IC50: curve of first compound; for viability, T/C: stronger effect = lower value
Summary of the method: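 Targeted small molecules plus PI3K inhibitors, half-log dose series from Cmax (default top 10 microM), were applied to heterotypic spheroids of cancer cells with HUVEC and MSCs. Viability indicated growth inhibition.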

[1] = second compound 0.00316 µM, first compound 0.0316 µM
[2] = second compound 0.00316 µM, first compound 0.1 µM
[3] = second compound 0.00316 µM, first compound 0.316 µM
[4] = second compound 0.00316 µM, first compound 1 µM
[5] = second compound 0.00316 µM, first compound 3.16 µM
[6] = second compound 0.00316 µM, first compound 10 µM
[7] = second compound 0.01 µM, first compound 0.0316 µM
[8] = second compound 0.01 µM, first compound 0.1 µM
[9] = second compound 0.01 µM, first compound 0.316 µM
[10] = second compound 0.01 µM, first compound 1 µM
[11] = second compound 0.01 µM, first compound 3.16 µM
[12] = second compound 0.01 µM, first compound 10 µM
[13] = second compound 0.0316 µM, first compound 0.0316 µM
[14] = second compound 0.0316 µM, first compound 0.1 µM
[15] = second compound 0.0316 µM, first compound 0.316 µM
[16] = second compound 0.0316 µM, first compound 1 µM
[17] = second compound 0.0316 µM, first compound 3.16 µM
[18] = second compound 0.0316 µM, first compound 10 µM
[19] = second compound 0.1 µM, first compound 0.0316 µM
[20] = second compound 0.1 µM, first compound 0.1 µM
[21] = second compound 0.1 µM, first compound 0.316 µM
[22] = second compound 0.1 µM, first compound 1 µM
[23] = second compound 0.1 µM, first compound 3.16 µM
[24] = second compound 0.1 µM, first compound 10 µM
[25] = second compound 0.316 µM, first compound 0.0316 µM
[26] = second compound 0.316 µM, first compound 0.1 µM
[27] = second compound 0.316 µM, first compound 0.316 µM
[28] = second compound 0.316 µM, first compound 1 µM
[29] = second compound 0.316 µM, first compound 3.16 µM
[30] = second compound 0.316 µM, first compound 10 µM
[31] = second compound 1 µM, first compound 0.0316 µM
[32] = second compound 1 µM, first compound 0.1 µM
[33] = second compound 1 µM, first compound 0.316 µM
[34] = second compound 1 µM, first compound 1 µM
[35] = second compound 1 µM, first compound 3.16 µM
[36] = second compound 1 µM, first compound 10 µM
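Note: spheroids exposed to agents for 7 days before viability read.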
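Throughout, for viability, T/C: 100% = DMSO vehicle treated spheroids.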

In the case of `C=CC(=O)N1CCN(c2nc(=O)n(-c3c(C)ccnc3C(C)C)c3nc(-c4c(O)cccc4F)c(F)cc23)C(C)C1` (centres undefined) + COc1c(OCCCN2CCOCC2)ccc2c3n(c(=NC(=O)c4cnc(N)nc4)nc12)CCN3, the IC50 (second compound 0.00316 µM) is reported as over 10 µM, the IC50 (second compound 0.01 µM) is reported as over 10 µM and the IC50 (second compound 0.0316 µM) is reported as over 10 µM. The IC50 (second compound 0.1 µM) was over 10 µM, the IC50 (second compound 0.316 µM) was over 10 µM and the IC50 (second compound 1 µM) was over 10 µM. The viability, T/C [1] was 96.5%, the viability, T/C [2] was 109% and the viability, T/C [3] was 95.6%. The viability, T/C [4] was 77.9%, the viability, T/C [5] was 88.7% and the viability, T/C [6] was 80.8%. For the same compound, the viability, T/C [7] was 102%, the viability, T/C [8] was 98.4% and the viability, T/C [9] was 101%. The viability, T/C [10] was 75.3%, the viability, T/C [11] was 93% and the viability, T/C [12] was 88.4%. The viability, T/C [13] was 88.4%, the viability, T/C [14] was 86.5% and the viability, T/C [15] was 97.3%. It also gave a viability, T/C [16] of 75.1%, a viability, T/C [17] of 89.5% and a viability, T/C [18] of 81.7%. For the same compound, the viability, T/C [19] was 80.4%, the viability, T/C [20] was 61.1% and the viability, T/C [21] was 80.1%. The viability, T/C [22] was 67.9%, the viability, T/C [23] was 69% and the viability, T/C [24] was 69%. The viability, T/C [25] was 62.6%, the viability, T/C [26] was 59.3% and the viability, T/C [27] was 59.5%. For the same compound, the viability, T/C [28] was 61.6%, the viability, T/C [29] was 69.8% and the viability, T/C [30] was 61%. For the same compound, the viability, T/C [31] was 59.1%, the viability, T/C [32] was 53% and the viability, T/C [33] was 65.5%. It also gave a viability, T/C [34] of 58.1%, a viability, T/C [35] of 64.5% and a viability, T/C [36] of 60.5%.

Compound `CC(C)NCC(C(=O)N1CCN(c2ncnc3c2C(C)CC3O)CC1)c1ccc(Cl)cc1` (centres undefined) + COc1c(OCCCN2CCOCC2)ccc2c3n(c(=NC(=O)c4cnc(N)nc4)nc12)CCN3 has an IC50 (second compound 0.00316 µM) of over 10 µM, an IC50 (second compound 0.01 µM) of over 10 µM and an IC50 (second compound 0.0316 µM) of over 10 µM. It also gave an IC50 (second compound 0.1 µM) of over 10 µM, an IC50 (second compound 0.316 µM) of over 10 µM and an IC50 (second compound 1 µM) of over 10 µM. For the same compound, the viability, T/C [1] was 117%, the viability, T/C [2] was 85% and the viability, T/C [3] was 81.3%. The viability, T/C [4] was 89.2%, the viability, T/C [5] was 78.7% and the viability, T/C [6] was 75.2%. It also gave a viability, T/C [7] of 97.2%, a viability, T/C [8] of 96.4% and a viability, T/C [9] of 85.7%. It also gave a viability, T/C [10] of 77.4%, a viability, T/C [11] of 87.4% and a viability, T/C [12] of 79.8%. It also gave a viability, T/C [13] of 91.6%, a viability, T/C [14] of 84.5% and a viability, T/C [15] of 73.6%. It also gave a viability, T/C [16] of 89.7%, a viability, T/C [17] of 70.5% and a viability, T/C [18] of 78.3%. For the same compound, the viability, T/C [19] was 76%, the viability, T/C [20] was 75.5% and the viability, T/C [21] was 68.7%. For the same compound, the viability, T/C [22] was 63.2%, the viability, T/C [23] was 77.4% and the viability, T/C [24] was 64.7%. For the same compound, the viability, T/C [25] was 60.1%, the viability, T/C [26] was 66% and the viability, T/C [27] was 62.1%. It also gave a viability, T/C [28] of 67.3%, a viability, T/C [29] of 62.3% and a viability, T/C [30] of 66.3%. It also gave a viability, T/C [31] of 58.6%, a viability, T/C [32] of 54.3% and a viability, T/C [33] of 62.4%. The viability, T/C [34] was 61.7%, the viability, T/C [35] was 65% and the viability, T/C [36] was 56.5%.

— PubChem BioAssay AID1963975 (Molecular Pharmacology Branch, DTP, NCI, 2024)
